Drawing on US20030079246A1, “Herbicide resistant plants” (priority 1999, published 2003), this text covers IC50 and Ki for one compound.

The experiment concerns the target mutant form of rice EPSPS. Description: EPSPS enzyme assay, inhibition of purified mutant rice EPSPS by glyphosate. The class given is biochemical. From the text:
The resultant products are gel purified and placed into a tube in eqi-molar concentrations to serve as a template for another round of PCRs with the rice 5′ and 3′ oligos. The resultant products are cloned into pCRBlunt II using Invitrogens Zero Blunt TOPO kit. It is confirmed that the DNA sequence of the insert and its predicted open reading frame correspond to that of the predicted mature chloroplastic rice EPSPS protein (with the exception of the presence of an initiating Met) and also that the desired changes (the specific mutation of T to I and P to S at specific positions in the EPSPS sequence) are encoded. The thus cloned and verified rice epsps sequence is excised using Nde 1 and Xho 1 and the purified fragment cloned into pET24a (Novagen) digested similarly. The recombinant clones are introduced into BL21 (DE3), a codon optimised RP strain of E.coli supplied by Strategene. The EPSPS protein is expressed in this strain following addition of 1 mM IPTG to the fermenter medium (LB supplemented with 100 ug/ml Kanamycin). […]

The structures appear in SMILES notation. Counter-ions that a name gives are not always drawn.

The term IC50 denotes the concentration needed to halve the response being measured. The Ki is the equilibrium dissociation constant of an inhibitor or competing ligand from its target.

For the compound `O=C(O)CNCP(=O)(O)O` [potassium salt of glyphosate], the IC50 (at 40 μM PEP, 2 mM shikimate-3-Pi) was ~600 µM. Also, where the note is “mutant EPSPS, read-out: estimated Ki value”, the Ki was ~200 µM.
